Data: US20200399238A1, “THERAPEUTIC AURONES” (MIDDLE TENNESSEE STATE UNIVERSITY, priority 2016, published 2020)
Read-outs that look alike come from different tables or passages of the source.

How the values were obtained:
[1] = system: C. albicans (ATCC strain 90028); experiment: Antifungal microdilution broth assay (PrestoBlue), C. albicans; format: cell-based, Candida albicans; details: Candida albicans, ATCC90028, Table 4B; C. albicans; 100 μM; value ± spread; read-out: Percent Inhibition (at 100 μM)
Description: Sigma-Aldrich) was used as the base medium for testing. […] solution of morpholinepropanesulfonic acid (MOPS; Sigma-Aldrich) was added to the RPMI to a final concentration of 0.165 M for buffering (RPMI-MOPS). This medium was adjusted to a pH of 7.0 with 10 M NaOH and filter sterilized. C. albicans (ATCC strain 90028), C. [NT] strain 66032), and C. tropicalis (ATCC strain 750) were cultured on potato dextrose agar (Sigma-Aldrich) plates, and incubated at 35° C. for 24 hours. For antifungal testing, overnight colonies were adjusted to 1.5×10^3 cells/mL, hereafter referred to as the test inoculum. PrestoBlue® (Life Technologies, Invitrogen, Carlsbad, Calif.), a resazurin-based cell viability reagent that, in metabolically active cells, is reduced from blue, non-fluorescent resazurin, to red, fluorescent resorufin, was used to assess inhibition of yeast growth by the aurones. […] Following addition of aurone, plates were then incubated for 24 hours at 35° C. PrestoBlue was added to a final concentration of 10% in each well and fluorescence read at 560 nm excitation and 590 nm emission, per manufacturer instructions, using a SpectraMax M2e spectrophotometer (Molecular Devices, LLC, Sunnyvale, Calif.). To optimize the PrestoBlue reduction time, RFUs were collected at 15 minute intervals for 4 hours using a reference antifungal. […] IC50 determination was calculated using GraphPad Prism version 7.01 for Windows (GraphPad Software, Inc., La Jolla, Calif.) from the RFUs at dilution points. Calculations were made with a nonlinear regression after transforming the molar concentrations of the aurones into the logarithmic form. Graphing was accomplished utilizing the same program following a four parameter curve fitting sigmoidal plot of the data. All aurones and controls were tested in triplicate and all testing was repeated in at least three independent experiments.

[2] = system: Leishmania amazonensis promastigotes expressing beta-lactamase; experiment: microbe, parasite or virus in culture; format: cell-based; details: for IC50: Leishmania amazonensis, read-out: IC50 L. amaz.
[3] = system: rat skeletal muscle cell line, L6; experiment: cells; format: cell-based
[4] = system: Trypanosoma cruzi Tulahuen cells expressing beta-galactosidase; experiment: T. cruzi intracellular assay (beta-galactosidase, L6 host cells); details: for IC50: Trypanosoma cruzi, TULAHUEN; for Selectivity L6/Tc-I: Table 3B; for Selectivity L6/Tc-I / Selectivity L6/TC-I: estimated from highest L6 dose tested where no L6 IC50; for Selectivity L6/TC-I: Table 3A
Description: Trypanosoma cruzi Tulahuen cells expressing beta-galactosidase (Buckner et al., Antimicrob. Agents Chemother. 40 (1996) 2592-2597) were cultured using the L6 cell line as a host cell. Adherent L6 cultures were infected with freshly burst T. cruzi trypomastigotes. Approximately 4-6 days later freshly burst trypomastigotes were collected and used to maintain cultures For assays, trypomastigotes were centrifuged to a loose pellet and incubated for 3 hours to allow the trypomastigote forms to swim out of the pellet. Cells were adjusted for addition to intracellular or extracellular assays. […] For intracellular assays, cells were added to adherent L6 cells using an infection ratio of 1:1 and immediately treated with compounds. At 96 hours incubations, a solution containing chlorophenol-red-B-D-beta-galactopyranosidase (Sigma) and a lysis agent were added. After an additional 2 hour incubation, a spectrophotometer was used to quantify the resulting color change (or lack thereof) which was used to calculate inhibition.
The percentage of cell inhibition was calculated using the formula: Percent Inhibition=1−((Treated Sample value−Medium only value)/(Untreated value−Medium only value))×100. Results are expressed as the mean of two or more independent trials.

[5] = system: Trypanosoma brucei brucei 427 cells; experiment: T. brucei culture and assay (PrestoBlue); format: cell-based
[6] = Rattus norvegicus, Table 1, read-out: IC50 Toxicity (L6)
[7] = read-out: IC50 T. cruzi, Table 1, intracellular assay, mean of 2(+) trials (^c one trial)
[8] = read-out: IC50 T. cruzi, Table 2, intracellular assay, mean of 2(+) independent trials
[9] = Trypanosoma brucei, Table 1, mean of 2(+) independent trials, read-out: IC50 T. brucei
[10] = Table 2, L6 IC50 / L. amazonensis IC50
[11] = Rattus norvegicus, Table 3B, weighted means of two or more independent trials, read-out: IC50 L6
[12] = Table 2, L6 mammalian cells, read-out: IC50 Toxicity (L6)
[13] = Table 1, intracellular T. cruzi IC50
[14] = Table 2, L6 IC50 / T. cruzi IC50 (intracellular assay)
[15] = read-out: IC50 TC-I, Table 3B, weighted means of two or more independent trials
[16] = Rattus norvegicus, Table 3A, weighted means of two or more independent trials, read-out: IC50 L6
[17] = read-out: IC50 TC-I, Table 3A, weighted means of two or more independent trials
[18] = Table 2, mean of 2(+) independent trials, read-out: IC50 T. brucei

SMILES	IC50 [2] [µM]	IC50 [3, 6] [µM]	IC50 [4, 7] [µM]	IC50 [4, 8] [µM]	IC50 [5, 9] [µM]	melting point [°C]	Selectivity L6/La ([2]; Table 1)	Selectivity L6/La [2, 10]	IC50 [3, 12] [µM]	Selectivity L6/Tc [4, 13]	Selectivity L6/Tc [4, 14]	other results
COc1cc(/C=C2\Oc3ccccc3C2=O)ccc1O [Aurone 9053, (Z)-2-(4-hydroxy-3-methoxybenzylidene)benzofuran-3(2H)-one]	2.15	> 200	> 50	> 50	> 50							inhibition at 100 µM [1]: 11.2 ± 2.2%
O=C1/C(=C/c2ccoc2)Oc2ccccc21 [Aurone 3005, (Z)-2-(furan-3-ylmethylene)benzofuran-3(2H)-one]	42.7	> 100	7.47	7.47	41.9	111 to 112	>2.34	>2.34	> 100	>13.39	>13.39	IC50 [3, 11]: > 100 µM; Selectivity L6/Tc-I [4]: >13.39; IC50 [4, 15]: 7.47 µM; Selectivity L6/Tb ([5]; Table 1): >2.39; Selectivity L6/Tb ([5]; Table 2, L6 IC50 / T. brucei IC50): >2.39; Selectivity L6/Tb ([5]; Table 3B, estimated from highest L6 dose tested where no L6 IC50): >2.39
N#Cc1cccc(/C=C2\Oc3ccccc3C2=O)c1 [Aurone 9070, (Z)-3-((3-oxobenzofuran-2(3H)-ylidene)methyl)benzonitrile]	< 1	> 200	16.7	16.7	34.7	175 to 177						
O=C1/C(=C/c2cccc(I)c2)Oc2ccccc21 [Aurone 9028, (Z)-2-(3-iodobenzylidene)benzofuran-3(2H)-one]	2.61	> 100	7.54	7.54	> 50	99 to 105	>38.31	>38.31	> 100	>13.26	>13.26	IC50 [3, 16]: > 100 µM; Selectivity L6/TC-I [4]: >13.26; IC50 [4, 17]: 7.54 µM; IC50 [5, 18]: > 50 µM
O=C1/C(=C/c2ccc(Br)cn2)Oc2ccccc21 [Aurone 3011, (Z)-2-((5-bromopyridin-2-yl)methylene)benzofuran-3(2H)-one]	2.61	> 100	32.9	32.9	> 50	192 to 193	>38.31	>38.31	> 100	>3.04	>3.04	IC50 [3, 11]: > 100 µM; Selectivity L6/Tc-I [4]: >3.04; IC50 [4, 15]: 32.9 µM; IC50 [5, 18]: > 50 µM
Cc1ccc(/C=C2\Oc3ccccc3C2=O)cc1 [Aurone 8c, (Z)-2-(4-methylbenzylidene)benzofuran-3(2H)-one]						75 to 76						activity against T. cruzi [4]: effective against T. cruzi only; IC50 ([4]; read-out: T. cruzi IC50 dose): < 10 µM; IC50 ([5]; Trypanosoma brucei, read-out: T. brucei IC50 dose): > 50 µM
COc1cc(OC)c2c(c1)O/C(=C\c1ccc(C)cc1)C2=O [Aurone 7000, (Z)-4,6 dimethoxy-2-(4-methylbenzalidene) benzofuran-3(2H)-one]						145 to 148						
O=C1/C(=C/c2ccccc2I)Oc2ccccc21 [Aurone 9003, (Z)-2-(2-iodobenzylidene)benzofuran-3(2H)-one]		> 100	15.4		> 50	145 to 148				>6.50		IC50 [3, 16]: > 100 µM; Selectivity L6/TC-I [4]: >6.50; IC50 [4, 17]: 15.4 µM
COc1cccc(/C=C2\Oc3ccccc3C2=O)c1O [Aurone 9055, (Z)-2-(2-hydroxy-3-methoxybenzylidene)benzofuran-3(2H)-one]	18.5	> 100	> 50		> 50							inhibition at 100 µM [1]: 16.7 ± 0.2%
